Data reported in patent US9167812B2, “Biocide compositions comprising amides based on 2-furoic acid and its derivatives” (Cognis IP Management GmbH, priority 2010, dated 2015).
Where two headings read alike, the source gives them in different places.

Columns and labels:
[1] = Solubility in water of each amide; assay type: physicochemical
Experimental: (§1) Solubility of several pesticides was measured in THF amides versus other amides. In addition the solubility in water of each amide has been checked.

[2] = Solubility of pesticides in THF amides versus other amides; assay type: physicochemical
Experimental: as §1

[3] = solubility of the amide solvent in water

SMILES: CN(C)C(=O)c1ccco1 [Example 5, 2-Furoic acid dimethyl amide]
- Water solubility [1, 3]: Medium

SMILES: CN(C)C(=O)C1CCCO1 (stereo not shown) [Example 7, THF dimethyl amide]
- Solubility of biocides: Epoxyconazole [2]: 10 % b.w.
- Solubility of biocides: Imidacloprid [2]: 19 % b.w.
- Solubility of biocides: Oxyfluorfen [2]: 31 % b.w.
- Solubility of biocides: Tebuconazole [2]: 46 % b.w.
- Water solubility [1]: High

SMILES: CCCCN(CCCC)C(=O)c1ccco1 [Example 6, 2-Furoic acid dibutyl amide]
- Water solubility [1, 3]: Medium

SMILES: CCCCN(CCCC)C(=O)C1CCCO1 (stereo not shown) [Example 8, 2-Tetrahydrofuroic Acid Dibutylamide]
- Water solubility [1, 3]: Medium

SMILES: CCCCCCCCCC(=O)N(C)C [Example C3, C10 dimethyl amide, reference compound]
- Solubility of biocides: Epoxyconazole ([2]; Epoxyconazole dissolved in the named solvent): 8 % b.w.
- Solubility of biocides: Imidacloprid ([2]; Imidacloprid dissolved in the named solvent): 2 % b.w.
- Solubility of biocides: Oxyfluorfen ([2]; Oxyfluorfen dissolved in the named solvent): 27 % b.w.
- Solubility of biocides: Tebuconazole ([2]; Tebuconazole dissolved in the named solvent): 32 % b.w.
- Water solubility [1, 3]: Low
